# Measurements reported in ChEMBL document CHEMBL4680201, “Design, synthesis, and pharmacological evaluation of 4- or 6-phenyl-pyrimidine derivatives as novel and selective Janus kinase 3 inhibitors” (Eur J Med Chem, 2020).
# Calls of active or inactive are those of the source. The calls are words filed in the database; no cut-off is given here.
# Columns and labels:
# [1] = Toxicity in Balb/c mouse model of oxazolone-induced delayed type hypersensitivity assessed as change in microscopic examination up to 30 mg/kg, po; format: organism-based; conditions: in vivo
# Mus musculus = experiment: Immunosuppressive activity in Balb/c mouse model of oxazolone-induced delayed type hypersensitivity assessed as appearance of well structured tissue architecture at 30 mg/kg, po measured after 7 days by H and E staining based histopathological analysis; format: functional, organism-based; conditions: time 7.0 day
# [2] = target: Tyrosine-protein kinase JAK2 (Homo sapiens, UniProt O60674); format: ADME
# [3] = target: T1, Tyrosine-protein kinase JAK3 (Homo sapiens) (UniProt P52333); experiment: Irreversible inhibition of recombinant human GST-tagged JAK3 cytoplasmic domain (781 to 1124 residues) expressed in baculovirus expression system at IC90 using TK-substrate-biotin preincubated for 30 mins followed by 1000 fold dilution and measured after 24 hrs by HTRF assay; conditions: time 24.5 hrs
# T1 sequence (whole entry): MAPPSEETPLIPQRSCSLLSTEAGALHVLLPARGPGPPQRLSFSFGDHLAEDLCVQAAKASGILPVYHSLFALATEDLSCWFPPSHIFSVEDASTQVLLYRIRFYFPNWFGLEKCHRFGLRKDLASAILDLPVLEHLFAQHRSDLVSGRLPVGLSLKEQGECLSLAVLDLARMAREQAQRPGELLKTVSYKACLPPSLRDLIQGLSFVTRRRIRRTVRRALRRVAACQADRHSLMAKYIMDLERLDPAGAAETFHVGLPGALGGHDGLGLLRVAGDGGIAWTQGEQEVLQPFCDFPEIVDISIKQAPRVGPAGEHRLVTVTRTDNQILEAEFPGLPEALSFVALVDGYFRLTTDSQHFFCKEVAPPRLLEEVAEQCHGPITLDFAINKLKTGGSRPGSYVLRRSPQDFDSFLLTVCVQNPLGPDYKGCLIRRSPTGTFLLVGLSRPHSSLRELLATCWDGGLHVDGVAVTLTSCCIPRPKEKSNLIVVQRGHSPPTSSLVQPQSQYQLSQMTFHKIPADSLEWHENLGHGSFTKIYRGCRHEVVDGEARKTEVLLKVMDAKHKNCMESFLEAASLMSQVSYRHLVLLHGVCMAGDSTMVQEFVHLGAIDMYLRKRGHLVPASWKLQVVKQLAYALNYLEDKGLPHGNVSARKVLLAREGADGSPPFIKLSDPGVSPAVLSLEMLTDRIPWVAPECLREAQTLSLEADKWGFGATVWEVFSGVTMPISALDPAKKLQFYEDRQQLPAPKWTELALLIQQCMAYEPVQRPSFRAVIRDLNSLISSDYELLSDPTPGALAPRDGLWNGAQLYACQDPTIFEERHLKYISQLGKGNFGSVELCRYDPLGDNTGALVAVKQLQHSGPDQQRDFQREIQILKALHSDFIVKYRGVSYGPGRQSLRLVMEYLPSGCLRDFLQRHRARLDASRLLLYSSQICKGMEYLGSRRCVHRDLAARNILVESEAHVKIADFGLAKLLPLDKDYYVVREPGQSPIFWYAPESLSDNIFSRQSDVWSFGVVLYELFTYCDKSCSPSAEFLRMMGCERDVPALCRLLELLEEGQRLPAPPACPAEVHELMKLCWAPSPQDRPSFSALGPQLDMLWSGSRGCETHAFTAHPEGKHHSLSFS
# [4] = target: BTK (Tyrosine-protein kinase BTK) (Homo sapiens, UniProt Q06187); experiment: Inhibition of recombinant human His-tagged full length BTK expressed in baculovirus expression system at 100 nM using Tyr01 peptide as substrate incubated for 1 hr by Z'lyte assay relative to control; conditions: probe Tyr01 peptide
# [5] = AUC (0 to t) in ICR mouse at 30 mg/kg, po administered as single dose via gavage by LC-MS/MS analysis; format: ADME, organism-based; parameters: dose 30 mg/kg; conditions: in vivo
# Sequence of BTK (Tyrosine-protein kinase BTK) (Q06187 whole entry): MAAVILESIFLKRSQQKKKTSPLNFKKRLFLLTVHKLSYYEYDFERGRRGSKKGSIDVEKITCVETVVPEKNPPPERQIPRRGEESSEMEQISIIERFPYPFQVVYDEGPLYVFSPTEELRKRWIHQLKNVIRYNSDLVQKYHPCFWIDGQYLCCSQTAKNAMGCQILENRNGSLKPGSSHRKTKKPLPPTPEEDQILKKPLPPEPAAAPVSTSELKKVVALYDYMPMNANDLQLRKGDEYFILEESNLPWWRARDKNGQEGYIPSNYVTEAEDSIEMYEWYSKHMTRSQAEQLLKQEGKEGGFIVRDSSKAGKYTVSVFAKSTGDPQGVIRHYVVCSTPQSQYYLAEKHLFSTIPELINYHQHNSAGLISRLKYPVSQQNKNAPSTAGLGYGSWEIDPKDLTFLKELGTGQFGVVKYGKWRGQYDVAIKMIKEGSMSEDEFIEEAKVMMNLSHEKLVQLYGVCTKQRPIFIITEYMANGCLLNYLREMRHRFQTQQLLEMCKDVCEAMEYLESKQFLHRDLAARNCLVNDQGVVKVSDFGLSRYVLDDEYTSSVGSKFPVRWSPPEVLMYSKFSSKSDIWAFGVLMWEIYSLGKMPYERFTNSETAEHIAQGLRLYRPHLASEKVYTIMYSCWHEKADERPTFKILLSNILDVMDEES
# Sequence of Tyrosine-protein kinase JAK2 (O60674 whole entry, the tested form may be a part): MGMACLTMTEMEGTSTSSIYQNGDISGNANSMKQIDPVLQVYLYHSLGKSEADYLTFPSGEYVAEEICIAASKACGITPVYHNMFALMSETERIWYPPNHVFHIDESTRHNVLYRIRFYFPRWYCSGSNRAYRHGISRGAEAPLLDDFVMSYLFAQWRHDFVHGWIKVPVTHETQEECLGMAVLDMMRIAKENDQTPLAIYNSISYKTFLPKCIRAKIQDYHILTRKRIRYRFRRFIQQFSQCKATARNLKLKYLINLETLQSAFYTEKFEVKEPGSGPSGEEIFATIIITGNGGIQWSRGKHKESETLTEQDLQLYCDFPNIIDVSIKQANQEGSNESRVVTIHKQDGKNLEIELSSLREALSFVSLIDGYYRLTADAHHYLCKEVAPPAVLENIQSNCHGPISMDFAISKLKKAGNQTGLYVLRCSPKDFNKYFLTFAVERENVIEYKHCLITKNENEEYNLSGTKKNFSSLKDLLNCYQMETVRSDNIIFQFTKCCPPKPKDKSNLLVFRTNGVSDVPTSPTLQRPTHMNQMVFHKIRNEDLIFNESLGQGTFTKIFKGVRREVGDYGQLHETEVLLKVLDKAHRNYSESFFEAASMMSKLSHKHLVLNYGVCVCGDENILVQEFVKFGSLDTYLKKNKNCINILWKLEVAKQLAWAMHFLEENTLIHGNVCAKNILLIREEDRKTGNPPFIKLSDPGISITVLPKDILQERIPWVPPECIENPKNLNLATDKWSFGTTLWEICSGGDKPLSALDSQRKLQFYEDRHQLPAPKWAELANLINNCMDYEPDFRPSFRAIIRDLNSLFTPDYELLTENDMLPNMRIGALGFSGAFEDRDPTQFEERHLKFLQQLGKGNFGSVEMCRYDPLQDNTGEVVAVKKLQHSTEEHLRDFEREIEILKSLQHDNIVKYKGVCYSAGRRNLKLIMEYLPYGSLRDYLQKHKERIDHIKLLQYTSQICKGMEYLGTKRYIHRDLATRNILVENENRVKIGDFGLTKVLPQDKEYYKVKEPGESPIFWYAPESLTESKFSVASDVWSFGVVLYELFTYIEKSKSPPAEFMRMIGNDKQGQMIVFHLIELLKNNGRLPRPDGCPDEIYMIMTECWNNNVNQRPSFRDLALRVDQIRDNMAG
structure (smiles),measurement,setting,value
C=CC(=O)Nc1ccc(-c2ccnc(Nc3ccc(N4CCOCC4)cc3)n2)cc1,Activity,[1],Non-Toxic
same,Activity,Mus musculus,Active
same,IC50,[2],1000 nM
same,inhibition,[3],Active
same,"inhibition at 1 h, 0.1 µM",[4],6.3%
same,AUC(0-t),[5],889 ng·h/mL
